Assay results published in patent US20160318938A1, “CRYSTALS (2) OF PYRAZINO[2,1-c][1,2,4]TRIAZINE COMPOUND” (PRISM PHARMA CO., LTD., priority 2013, published 2016).
“Also recorded” adds a separate entry of the source. Values belong to the compound of their own block, whether it stands above or below them.

Columns and labels:
Format in all cases: physicochemical
[1] = Hygroscopicity evaluation by dynamic water adsorption measuring apparatus; conditions: 25° C.; for variation in the mass (weight) with increasing relative humidity: 5-95% RH stepwise; for hygroscopicity: 5-95% RH
Description: The hygroscopicity of Examples 1, 3 and Comparative Example 1 was evaluated by a dynamic water adsorption measuring apparatus. A sample mounting part of the apparatus was maintained at 25° C., and the relative humidity (RH) was set stepwisely within the range of 5-95% RH. The humidity was controlled by changing the relative flow of 0% RH dry nitrogen and 100% RH humidified nitrogen. The sample weight was confirmed at 2 min intervals by a micro balance, and the humidity was sequentially changed at the time point when the weight shift range for 5 min was below 0.01%.

[2] = Stability evaluation of crystals A, B and C (mixture of equal amounts in supersaturated solution); conditions: for form of the crystal obtained: equal amounts of crystals A, B and C, one day; for relative stability among crystals A, B and C: room temperature or 40° C.
Description: To a supersaturated solution of compound 1 using the solvents shown in Table 8 was added a mixture of equal amounts of crystals A, B and C at room temperature or 40° C., and the form of the crystal obtained one day later was observed using powder X-ray diffraction.

[3] = Relationship between water content of solvent and crystal form (heptane/ethanol 16:3); conditions: for crystal form: overnight
Description: To a saturated solution of crystal C in a mixed solvent of heptane and ethanol (volume ratio 16:3) were added crystal C (100 mg) and crystal D (100 mg) at a temperature shown in Table 2, water in the amount shown in Table 6 was further added, and the mixture was stood overnight. The water content of the solution after the standing was measured by the Karl Fischer method, and the crystal form of compound 1 was measured by powder X-ray diffraction. The amount of the water added is shown in mass % relative to the mass of the whole solvent.

[4] = Thermal stability of crystals A and D (oven heating overnight, powder X-ray diffraction); conditions: for crystal form after heating: oven, overnight
Description: Crystals A and D were heated in an oven at 50° C. or 70° C. overnight, and transition of each crystal was confirmed by powder X-ray diffraction.

[5] = Stability evaluation of crystal A: slurry in solvents, crystal form by powder X-ray diffraction and DSC; conditions: room temperature, 2 days
Description: Crystal A was added in excess to the solvents described in Table 1 to give a slurry, which was stood at room temperature for 2 days, and the crystal form thereof was measured using powder X-ray diffraction and differential scanning calorimeter (DSC).

[6] = single crystal form in heptane/ethanol (16:3) with water content of less than 0.5%, stood overnight

relative stability among crystals A, B and C ([2]; water): most stable in water | hygroscopicity [1]: low | variation in the mass (weight) with increasing relative humidity ([1]; listed as Example 1): weight did not increase | relative stability to heat ([4]; crystal A versus crystal D, 50° C. overnight): more stable to heat than crystal D | crystal form after heating ([4]; 70° C.): transits to an amorphous form | crystal form ([5]; crystal A slurry in methanol): transition to crystal B occurred | crystal form ([5]; crystal A slurry in tetrahydrofuran): transition to an amorphous form occurred
Structure (SMILES): C[C@H]1C2N(C(=O)CN(C)N2C(=O)NCc2ccccc2)[C@@H](Cc2ccc(O)cc2)C(=O)N1Cc1cccc2cccnc12 (stereo partly drawn) [crystal A, (6S,9S)—N-benzyl-6-(4-hydroxybenzyl)-2,9-dimethyl-4,7-dioxo-8-(quinolin-8-ylmethyl)octahydro-1H-pyrazino[2,1-c][1,2,4]triazine-1-carboxamide]
crystal form after heating ([4]; 50° C.): did not show transition; also recorded: not transited; also recorded: crystal A | crystal form ([5]; crystal A slurry in MTBE): transition did not occur; also recorded: crystal A | crystal form ([5]; crystal A slurry in acetonitrile): transition did not occur; also recorded: crystal A | crystal form ([5]; crystal A slurry in ethanol): transition to crystal C occurred gradually | crystal form ([5]; crystal A slurry in ethyl acetate): transition to crystal C occurred gradually | crystal form ([5]; crystal A slurry in isopropanol): transition to crystal C occurred gradually | crystal form ([5]; crystal A slurry in isopropyl acetate): transition did not occur; also recorded: crystal A | crystal form ([5]; crystal A slurry in methylethyl ketone): transition did not occur; also recorded: crystal A | crystal form ([5]; crystal A slurry in water): transition did not occur; also recorded: crystal A

relative stability among crystals A, B and C ([2]; isopropanol, isopropyl acetate, MTBE or ethyl acetate): most stable in other nonaqueous solvents | hygroscopicity [1]: low | variation in the mass (weight) with increasing relative humidity ([1]; listed as Example 3): weight did not increase | transition of crystal form ([3]; single crystal form in heptane/ethanol (16:3) with water content of not less than 0.5%, left overnight): transited to crystal D
Structure (SMILES): C[C@H]1C2N(C(=O)CN(C)N2C(=O)NCc2ccccc2)[C@@H](Cc2ccc(O)cc2)C(=O)N1Cc1cccc2cccnc12 (stereo partly drawn) [crystal C, (6S,9S)—N-benzyl-6-(4-hydroxybenzyl)-2,9-dimethyl-4,7-dioxo-8-(quinolin-8-ylmethyl)octahydro-1H-pyrazino[2,1-c][1,2,4]triazine-1-carboxamide]
transition of crystal form [3, 6]: transition of crystal form did not occur; also recorded: not transited

crystal form after heating ([4]; 70° C.): transits to an amorphous form
Structure (SMILES): C[C@H]1C2N(C(=O)CN(C)N2C(=O)NCc2ccccc2)[C@@H](Cc2ccc(O)cc2)C(=O)N1Cc1cccc2cccnc12 (stereo partly drawn) [crystal D, (6S,9S)—N-benzyl-6-(4-hydroxybenzyl)-2,9-dimethyl-4,7-dioxo-8-(quinolin-8-ylmethyl)octahydro-1H-pyrazino[2,1-c][1,2,4]triazine-1-carboxamide]
transition of crystal form [3, 6]: transition to crystal C occurred; also recorded: transits to crystal C | crystal form after heating ([4]; 50° C.): A part of crystal D transits to an amorphous form; also recorded: mixture of crystal D

The next lines start with the compound.

Structure (SMILES): C[C@H]1C2N(C(=O)CN(C)N2C(=O)NCc2ccccc2)[C@@H](Cc2ccc(O)cc2)C(=O)N1Cc1cccc2cccnc12 (stereo partly drawn) [Comparative Example 1, (6S,9S)—N-benzyl-6-(4-hydroxybenzyl)-2,9-dimethyl-4,7-dioxo-8-(quinolin-8-ylmethyl)octahydro-1H-pyrazino[2,1-c][1,2,4]triazine-1-carboxamide]
variation in the mass (weight) with increasing relative humidity [1]: weight increased along with an increase in the humidity

Structure (SMILES): C[C@H]1C2N(C(=O)CN(C)N2C(=O)NCc2ccccc2)[C@@H](Cc2ccc(O)cc2)C(=O)N1Cc1cccc2cccnc12 (stereo partly drawn) [compound 1, (6S,9S)—N-benzyl-6-(4-hydroxybenzyl)-2,9-dimethyl-4,7-dioxo-8-(quinolin-8-ylmethyl)octahydro-1H-pyrazino[2,1-c][1,2,4]triazine-1-carboxamide]
form of the crystal obtained ([2]; MTBE, 40° C.): crystal C | form of the crystal obtained ([2]; MTBE, room temperature): crystal C | form of the crystal obtained ([2]; ethyl acetate, 40° C.): crystal C | form of the crystal obtained ([2]; ethyl acetate, room temperature): crystal C | form of the crystal obtained ([2]; isopropanol, 40° C.): crystal C | form of the crystal obtained ([2]; isopropanol, room temperature): crystal C | form of the crystal obtained ([2]; isopropyl acetate, 40° C.): crystal C | form of the crystal obtained ([2]; isopropyl acetate, room temperature): crystal C | form of the crystal obtained ([2]; water, 40° C.): crystal A | form of the crystal obtained ([2]; water, room temperature): crystal A | crystal form ([3]; crystal C + crystal D (100 mg each) in heptane/ethanol 16:3, 5° C., water added 0 mass %, water content 0.32%): crystal C | crystal form ([3]; crystal C + crystal D (100 mg each) in heptane/ethanol 16:3, 5° C., water added 0.5 mass %, water content 0.93%): crystal D | crystal form ([3]; crystal C + crystal D (100 mg each) in heptane/ethanol 16:3, 5° C., water added 1.0 mass %, water content 1.56%): crystal D | crystal form ([3]; crystal C + crystal D (100 mg each) in heptane/ethanol 16:3, 40° C., water added 0 mass %, water content 0.33%): crystal C | crystal form ([3]; crystal C + crystal D (100 mg each) in heptane/ethanol 16:3, 40° C., water added 0.5 mass %, water content 0.94%): crystal D | crystal form ([3]; crystal C + crystal D (100 mg each) in heptane/ethanol 16:3, 40° C., water added 1.0 mass %, water content 1.55%): crystal D | crystal form ([3]; crystal C + crystal D (100 mg each) in heptane/ethanol 16:3, room temperature, water added 0 mass %, water content 0.33%): crystal C | crystal form ([3]; crystal C + crystal D (100 mg each) in heptane/ethanol 16:3, room temperature, water added 0.5 mass %, water content 0.93%): crystal D | crystal form ([3]; crystal C + crystal D (100 mg each) in heptane/ethanol 16:3, room temperature, water added 1.0 mass %, water content 1.57%): crystal D | crystal form obtained ([3]; crystal C + crystal D in heptane/ethanol 16:3, amount of water further added exceeded 2 mass %): crystal A was obtained | crystal form obtained ([3]; crystal C + crystal D in heptane/ethanol 16:3, water content less than 0.5%): crystal C was obtained | crystal form obtained ([3]; crystal C + crystal D in heptane/ethanol 16:3, water content not less than 0.5%): crystal D was obtained
